Reference: patent publication US11524968B2, “Heterocyclic compound as a protein kinase inhibitor” (HK inno.N Corporation, priority 2017, dated 2022)

Target: JAK1 (Homo sapiens (Human), UniProt P23458)
Assay: Analysis of JAK1 activity inhibition ability (ADP-Glo Kinase Assay)
Type: biochemical
Conditions: JAK1 enzyme, ADP-Glo luminescence, ATP 250 uM, IRS-itide substrate, 30° C. 40 minutes; read-out: IC50
Procedure: Test Example 1: Analysis of JAK1 Activity Inhibition Ability of Compound of Formula 1 (ADP-Glo™ Kinase Assay)
A JAK inhibition ability of a compound according to the present invention was identified as follows.
A control material and a test material were prepared for each concentration, in such a way that they were diluted by means of DMSO. At the same time, ATP (250 uM) and JAK substrate (JAK1, IRS-itide 40 ng/mL) were prepared, in such a way that they were diluted by means of kinase buffer (40 mM Tris-HCl pH 7.5, 20 mM MgCl2, 0.5 mg/mL BSA, 50 uM DTT).
A test drug for each concentration, substrate, ATP and JAK enzyme were mixed in an eppendorf tube, and reacted in a 30° C. incubator for 40 minutes.
ADP-Glo™ reagent contained in ADP-Glo™ Kinase Enzyme System (Promega, USA, V9571) was added into each eppendorf tube, and reacted in a 30° C. incubator for 40 minutes. A kinase detection reagent contained in ADP-Go™ Kinase Enzyme System was inserted into the eppendorf tube, then an integration time was set to 1 second by using Wallac Victor 2™, then luminescence was measured, and then JAKs phosphorylation inhibition ability of the test material was analyzed. The concentration of the compound, which causes 50% of the JAK enzyme activity inhibition in comparison With the control group, was determined as IC50 (nM) of an inhibitor, wherein the results thereof are shown in a following table 1.

Sequence of JAK1 (P23458 whole entry): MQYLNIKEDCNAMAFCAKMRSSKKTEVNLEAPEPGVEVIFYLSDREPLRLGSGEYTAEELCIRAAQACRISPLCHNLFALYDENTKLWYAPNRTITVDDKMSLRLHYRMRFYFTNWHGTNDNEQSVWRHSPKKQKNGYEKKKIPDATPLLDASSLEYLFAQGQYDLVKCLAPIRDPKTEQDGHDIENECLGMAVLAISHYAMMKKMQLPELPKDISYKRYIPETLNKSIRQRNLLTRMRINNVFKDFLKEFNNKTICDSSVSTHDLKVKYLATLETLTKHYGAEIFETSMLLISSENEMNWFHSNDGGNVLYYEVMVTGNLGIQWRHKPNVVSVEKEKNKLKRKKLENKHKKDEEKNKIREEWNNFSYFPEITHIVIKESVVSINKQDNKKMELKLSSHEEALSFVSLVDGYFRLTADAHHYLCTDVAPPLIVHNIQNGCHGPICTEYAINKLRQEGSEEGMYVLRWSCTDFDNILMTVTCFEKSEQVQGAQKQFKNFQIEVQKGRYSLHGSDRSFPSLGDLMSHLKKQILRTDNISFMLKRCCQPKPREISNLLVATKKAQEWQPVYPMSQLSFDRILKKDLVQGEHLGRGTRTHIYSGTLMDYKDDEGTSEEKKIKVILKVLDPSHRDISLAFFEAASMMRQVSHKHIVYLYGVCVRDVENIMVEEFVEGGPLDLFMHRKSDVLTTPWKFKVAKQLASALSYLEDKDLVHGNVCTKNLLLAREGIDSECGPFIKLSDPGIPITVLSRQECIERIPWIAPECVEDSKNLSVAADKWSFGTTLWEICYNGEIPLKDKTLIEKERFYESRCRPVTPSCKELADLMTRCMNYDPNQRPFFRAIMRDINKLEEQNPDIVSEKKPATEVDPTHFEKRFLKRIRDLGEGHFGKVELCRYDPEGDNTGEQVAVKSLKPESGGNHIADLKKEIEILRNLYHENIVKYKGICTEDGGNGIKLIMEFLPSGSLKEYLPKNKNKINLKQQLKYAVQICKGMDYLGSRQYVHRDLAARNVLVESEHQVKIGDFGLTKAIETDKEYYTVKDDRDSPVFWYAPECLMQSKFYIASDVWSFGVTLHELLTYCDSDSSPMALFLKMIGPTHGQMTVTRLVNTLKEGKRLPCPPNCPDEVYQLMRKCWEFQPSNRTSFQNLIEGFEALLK

IC50 [nM] | Compound
< 20 | CCS(=O)(=O)Nc1ccc(-c2cc(NC(=O)C3CC3)nc3[nH]ccc23)c(C)c1 [Example 29, N-(4-(4-(ethylsulfonamido)-2-methylphenyl)-1H-pyrrolo[2,3-b]pyridin-6-yl)cyclopropanecarboxamide]
< 20 | CCS(=O)(=O)Nc1ccc(-c2cc(NC(=O)C3CC3)nc3[nH]ccc23)c(F)c1 [Example 30, N-(4-(4-(ethylsulfonamido)-2-fluorophenyl)-1H-pyrrolo[2,3-b]pyridin-6-yl)cyclopropanecarboxamide]
20 to 200 | O=C(Nc1cc(-c2ccc(NS(=O)(=O)c3ccc(Br)c(F)c3)cc2)c2cc[nH]c2n1)C1CC1 [Example 31, N-(4-(4-((4-bromo-3-fluorophenyl)sulfonamido)phenyl)-1H-pyrrolo[2,3-b]pyridin-6-yl)cyclopropanecarboxamide]
20 to 200 | O=C(Nc1cc(-c2ccc(NS(=O)(=O)c3ccc(Br)cc3F)cc2)c2cc[nH]c2n1)C1CC1 [Example 32, N-(4-(4-((4-bromo-2-fluorophenyl)sulfonamido)phenyl)-1H-pyrrolo[2,3-b]pyridin-6-yl)cyclopropanecarboxamide]
20 to 200 | O=C(Nc1cc(-c2ccc(NS(=O)(=O)c3ccc(Cl)c(C(F)(F)F)c3)cc2)c2cc[nH]c2n1)C1CC1 [Example 33, N-(4-(4-((4-chloro-3-(trifluoromethyl)phenyl)sulfonamido)phenyl)-1H-pyrrolo[2,3-b]pyridin-6-yl)cyclopropanecarboxamide]
< 20 | O=C(Nc1cc(-c2ccc(NS(=O)(=O)c3ccc4c(c3)OCO4)cc2)c2cc[nH]c2n1)C1CC1 [Example 34, N-(4-(4-(benzo[d][1,3]dioxole-5-sulfonamido)phenyl)-1H-pyrrolo[2,3-b]pyridin-6-yl)cyclopropanecarboxamide]
< 20 | CCS(=O)(=O)Nc1ccc(-c2cc(NC(=O)C3CC3C)nc3[nH]ccc23)cc1 (centres unmarked) [Example 35, N-(4-(4-(ethylsulfonamido)phenyl)-1H-pyrrolo[2,3-b]pyridin-6-yl)-2-methylcyclopropane-1-carboxamide]
< 20 | O=C(Nc1cc(-c2ccc(NS(=O)(=O)Cc3ccc(F)cc3)cc2)c2cc[nH]c2n1)C1CC1 [Example 36, N-(4-(4-(((4-fluorophenyl)methyl)sulfonamido)phenyl)-1H-pyrrolo[2,3-b]pyridin-6-yl)cyclopropanecarboxamide]
20 to 200 | CN(C)S(=O)(=O)c1ccc(S(=O)(=O)Nc2ccc(-c3cc(NC(=O)C4CC4)nc4[nH]ccc34)cc2)cc1 [Example 37, N-(4-(4-((4-(N,N-dimethylsulfamoyl)phenyl)sulfonamido)phenyl)-1H-pyrrolo[2,3-b]pyridin-6-yl)cyclopropanecarboxamide]
20 to 200 | O=C(Nc1cc(-c2ccc(NS(=O)(=O)c3ccc4c(c3)OCCO4)cc2)c2cc[nH]c2n1)C1CC1 [Example 38, N-(4-(4-((2,3-dihydrobenzo[b][1,4]dioxine)-6-sulfonamido)phenyl)-1H-pyrrolo[2,3-b]pyridin-6-yl)cyclopropanecarboxamide]
20 to 200 | O=C(Nc1cc(-c2ccc(NS(=O)(=O)c3ccc(-n4cnnn4)cc3)cc2)c2cc[nH]c2n1)C1CC1 [Example 39, N-(4-(4-((4-(1H-tetrazol-1-yl)phenyl)sulfonamido)phenyl)-1H-pyrrolo[2,3-b]pyridin-6-yl)cyclopropanecarboxamide]
20 to 200 | N#Cc1ccc(S(=O)(=O)Nc2ccc(-c3cc(NC(=O)C4CC4)nc4[nH]ccc34)cc2)cn1 [Example 40, N-(4-(4-((6-cyanopyridine)-3-sulfonamido)phenyl)-1H-pyrrolo[2,3-b]pyridin-6-yl)cyclopropanecarboxamide]
< 20 | CC(C)S(=O)(=O)Nc1ccc(-c2cc(NC(=O)C3CC3)nc3[nH]ccc23)cc1 [Example 41, N-(4-(4-((1-methylethyl)sulfonamido)phenyl)-1H-pyrrolo[2,3-b]pyridin-6-yl)cyclopropanecarboxamide]
< 20 | CCC(CC)S(=O)(=O)Nc1ccc(-c2cc(NC(=O)C3CC3)nc3[nH]ccc23)cc1 [Example 42, N-(4-(4-((1-ethylpropyl)sulfonamido)phenyl)-1H-pyrrolo[2,3-b]pyridin-6-yl)cyclopropanecarboxamide]
< 20 | CC(C)CS(=O)(=O)Nc1ccc(-c2cc(NC(=O)C3CC3)nc3[nH]ccc23)cc1 [Example 43, N-(4-(4-((2-methylpropyl)sulfonamido)phenyl)-1H-pyrrolo[2,3-b]pyridin-6-yl)cyclopropanecarboxamide]
< 20 | CC(C)(C)CS(=O)(=O)Nc1ccc(-c2cc(NC(=O)C3CC3)nc3[nH]ccc23)cc1 [Example 44, N-(4-(4-((2,2-dimethylpropyl)sulfonamido)phenyl)-1H-pyrrolo[2,3-b]pyridin-6-yl)cyclopropanecarboxamide]

IC50 [nM] | Compound
< 20 | CC(C)CCS(=O)(=O)Nc1ccc(-c2cc(NC(=O)C3CC3)nc3[nH]ccc23)cc1 [Example 45, N-(4-(4-((3-methylbutyl)sulfonamido)phenyl)-1H-pyrrolo[2,3-b]pyridin-6-yl)cyclopropanecarboxamide]
< 20 | O=C(Nc1cc(-c2ccc(NS(=O)(=O)CC3CC3)cc2)c2cc[nH]c2n1)C1CC1 [Example 46, N-(4-(4-((cyclopropylmethyl)sulfonamido)phenyl)-1H-pyrrolo[2,3-b]pyridin-6-yl)cyclopropanecarboxamide]
< 20 | O=C(Nc1cc(-c2ccc(NS(=O)(=O)CC3CCCCC3)cc2)c2cc[nH]c2n1)C1CC1 [Example 47, N-(4-(4-((cyclohexylmethyl)sulfonamido)phenyl)-1H-pyrrolo[2,3-b]pyridin-6-yl)cyclopropanecarboxamide]
< 20 | C=CCS(=O)(=O)Nc1ccc(-c2cc(NC(=O)C3CC3)nc3[nH]ccc23)cc1 [Example 48, N-(4-(4-(allylsulfonamido)phenyl)-1H-pyrrolo[2,3-b]pyridin-6-yl)cyclopropanecarboxamide]
20 to 200 | O=C(Nc1cc(-c2ccc(NS(=O)(=O)CF)cc2)c2cc[nH]c2n1)C1CC1 [Example 49, N-(4-(4-((fluoromethyl)sulfonamido)phenyl)-1H-pyrrolo[2,3-b]pyridin-6-yl)cyclopropanecarboxamide]
20 to 200 | O=C(Nc1cc(-c2ccc(NS(=O)(=O)C(F)F)cc2)c2cc[nH]c2n1)C1CC1 [Example 50, N-(4-(4-((difluoromethyl)sulfonamido)phenyl)-1H-pyrrolo[2,3-b]pyridin-6-yl)cyclopropanecarboxamide]
20 to 200 | O=C(Nc1cc(-c2ccc(NS(=O)(=O)CC(F)F)cc2)c2cc[nH]c2n1)C1CC1 [Example 51, N-(4-(4-((2,2-difluoroethyl)sulfonamido)phenyl)-1H-pyrrolo[2,3-b]pyridin-6-yl)cyclopropanecarboxamide]
< 20 | N#CCCCS(=O)(=O)Nc1ccc(-c2cc(NC(=O)C3CC3)nc3[nH]ccc23)cc1 [Example 52, N-(4-(4-((3-cyanopropyl)sulfonamido)phenyl)-1H-pyrrolo[2,3-b]pyridin-6-yl)cyclopropanecarboxamide]
20 to 200 | CCOCCS(=O)(=O)Nc1ccc(-c2cc(NC(=O)C3CC3)nc3[nH]ccc23)cc1 [Example 53, N-(4-(4-((2-ethoxyethyl)sulfonamido)phenyl)-1H-pyrrolo[2,3-b]pyridin-6-yl)cyclopropanecarboxamide]
< 20 | O=C(Nc1cc(-c2ccc(NS(=O)(=O)CC3CCOC3)cc2)c2cc[nH]c2n1)C1CC1 (centres unmarked) [Example 54, N-(4-(4-(((tetrahydrofuran-3-yl)methyl)sulfonamido)phenyl)-1H-pyrrolo[2,3-b]pyridin-6-yl)cyclopropanecarboxamide]
< 20 | O=C(Nc1cc(-c2ccc(NS(=O)(=O)CC3CCOCC3)cc2)c2cc[nH]c2n1)C1CC1 [Example 55, N-(4-(4-(((tetrahydro-2H-pyran-4-yl)methyl)sulfonamido)phenyl)-1H-pyrrolo[2,3-b]pyridin-6-yl)cyclopropanecarboxamide]
< 20 | CS(=O)(=O)CCS(=O)(=O)Nc1ccc(-c2cc(NC(=O)C3CC3)nc3[nH]ccc23)cc1 [Example 56, N-(4-(4-((2-(methylsulfonyl)ethyl)sulfonamido)phenyl)-1H-pyrrolo[2,3-b]pyridin-6-yl)cyclopropanecarboxamide]
< 20 | O=C(Nc1cc(-c2ccc(NS(=O)(=O)C3CC3)cc2)c2cc[nH]c2n1)C1CC1 [Example 57, N-(4-(4-(cyclopropanesulfonamido)phenyl)-1H-pyrrolo[2,3-b]pyridin-6-yl)cyclopropanecarboxamide]
< 20 | O=C(Nc1cc(-c2ccc(NS(=O)(=O)C3CCC3)cc2)c2cc[nH]c2n1)C1CC1 [Example 58, N-(4-(4-(cyclobutanesulfonamido)phenyl)-1H-pyrrolo[2,3-b]pyridin-6-yl)cyclopropanecarboxamide]
> 200 | CCS(=O)(=O)Nc1ccc(-c2cc(NC(=O)C3CC3)nc3[nH]ccc23)cc1C#N [Example 59, N-(4-(3-cyano-4-(ethylsulfonamido)phenyl)-1H-pyrrolo[2,3-b]pyridin-6-yl)cyclopropanecarboxamide]
> 200 | CCS(=O)(=O)Nc1ccc(-c2cc(NC(=O)C3CC3)nc3c2ccn3C)cc1F [Example 60, N-(4-(4-(ethylsulfonamido)-3-fluorophenyl)-1-methyl-1H-pyrrolo[2,3-b]pyridin-6-yl)cyclopropanecarboxamide]
